# According to publication PMC6259611, “Comparative Anti-Infectious Bronchitis Virus (IBV) Activity of (-)-Pinene: Effect on Nucleocapsid (N) Protein” (Molecules, 2011):
# Values joined by “and” are separate entries in the source; they are usually repeats but may differ in a detail not shown here. Identical values can stand only once.
# Experiments:
# [1] = in vitro; conditions: African green monkey
# Description: (§1) Vero-E6 (African green monkey kidney cells) was purchased from Harbin Veterinary Research Institute (Harbin, P. R. China). The cells were grown in monolayer culture with Dulbecco’s modified Eagle’s medium (DMEM) supplemented with 10% fetal calf serum (FCS), 100 U/mL penicillin and 100 μg/mL streptomycin. The monolayers were removed from their plastic surfaces and serially passaged whenever they became confluent. Cells were plated out onto 96-well culture plates for cytotoxicity and anti-IBV assays, and propagated at 37 °C in an atmosphere of 5 % CO2.
# (§2) The supernatants were discarded, washed with PBS twice and MTT reagent (5 mg/mL in PBS) was added to each well, after incubated at 37 °C for 4 h, remove the supernatants, then 200 μL DMSO was added and incubated at 37 °C for another 30 min. After that the plates were read on an ELISA reader (Thermo Molecular Devices Co., Union City, USA) at 570/630 nm. The mean OD of the cell control wells was assigned a value of 100%. The maximal non-toxic concentration (TD0) and 50% cytotoxic concentration (CC50) were calculated by linear regression analysis of the dose-response curves generated from the data.
# [2] = tested on: IBV (Gray strain); assay: Anti-IBV activity (inhibition of virus replication, MTT method); type: cell-based, Infectious bronchitis virus; conditions: Avian coronavirus, Vero, 72 h
# Description: The IBV Gray strain was purchased from National Control Institute of Veterinatory Bioproducts and Pharmaceuticals (Beijing, P. R. China). Virus was routinely grown on Vero-E6 cells. IBV-Gray stock cultures were prepared from supernatants of infected cells and stored at −80 °C.
# Inhibition of virus replication was measured by MTT method. Serial dilution of the treated virus was adsorbed to the cells for 1 h at 37 °C. The residual inoculum was discared and infected cells were added with DMEM containing 2% FCS. Each assay was performed in eight replicates. After incubation for 72 h at 37 °C, the cultures were measured by MTT method as described above.
# [3] = tested on: IBV (Gray strain)
# Description: The compound was aspirated and cells were washed immediately before the IBV inoculum was added. […] For analyzing the anti-IBV inhibition during the adsorption period, the same amount of IBV was mixed with the drug and added to the cells immediately. After 1h of adsorption at 37 °C, the inoculum was removed and DMEM supplemented with 2% FCS were added to the cells. […] Each assay was run in eight replicates. Ribavirin was used as a positive control.
# [4] = tested on: Vero-E6 cells; assay: in vitro; conditions: Vero cells, 72 h, MTT
# Description: as §1, §2
Structure (SMILES),CC50 at 72 h [1] [µM],IC50 [2] [µM],inhibition [3],TD0 (maximum noncytotoxic concentration) [4] [mM]
CC1=CCC2CC1C2(C)C (stereo not drawn) [(-)-α-pinene],> 10000,980 ± 250,87% and 67.6%,–
C=C1CCC2CC1C2(C)C (stereo not drawn) [(-)-β-pinene],> 10000,1320 ± 110,81% and 55.4%,6.09 ± 0.31
"NC(=O)c1ncn([C@@H]2O[C@H](CO)[C@@H](O)[C@H]2O)n1 [Ribavirin, ribavirin, reference compound]",> 1000,118 ± 20,90.2 ± 2.8%,–
